Measurements from ChEMBL document CHEMBL5608195, “Identification and biological evaluation of fused tetrahydroisoquinoline derivatives as Wnt/β-catenin signaling inhibitors to suppress colorectal cancer” (Eur J Med Chem, 2024).
Calls of active or inactive are those of the source. The calls are words filed in the database; no cut-off is given here.

Tests used:
[1] = Toxicity in male BALB/c mouse xenografted with human HCT-116 cells assessed as effect on body weight at 10 to 40 mg/kg, ip measured every two days for upto 20 days; assay type: organism-based; conditions: in vivo, 480 h, dose 10-40 mg/kg, time < 20 day
HCT-116 [2] = experiment: Antiproliferative activity against human HCT-116 cells assessed as inhibition of DNA proliferation at 10 uM incubated for 22 hrs by fluorescence based microscopic analysis; assay type: functional, cell-based
[3] = Toxicity in male BALB/c mouse xenografted with human HCT-116 cells assessed as effect on serum creatinine level at 10 to 40 mg/kg, ip by biochemical analysis; assay type: organism-based; conditions: in vivo, dose 10-40 mg/kg
RKO [4] = experiment: Induction of cell cycle arrest in human RKO cells assessed as downregulation of Cyclin A2 protein level by Western blot analysis; assay type: functional, cell-based
HCT-116 [5] = experiment: Inhibition of Wnt/beta-catenin signaling pathway in human HCT-116 cells assessed as downregulation of beta-catenin expression incubated for 24 hrs by qRT-PCR analysis; assay type: cell-based; conditions: dose <= 10.0 µM
[6] = Toxicity in male BALB/c mouse xenografted with human HCT-116 cells assessed as histological change in heart at 10 to 40 mg/kg, ip by H and E staining based optical microscopic analysis; assay type: organism-based; conditions: in vivo, dose 10-40 mg/kg
[7] = Toxicity in male BALB/c mouse xenografted with human HCT-116 cells assessed as effect on serum ALT level at 10 to 40 mg/kg, ip by biochemical analysis; assay type: organism-based; conditions: in vivo, dose 10-40 mg/kg
RKO [8] = experiment: Induction of cell cycle arrest in human RKO cells assessed as upregulation of P21 protein level by Western blot analysis; assay type: functional, cell-based
[9] = Cmax in male ICR (CD-1) mouse at 10 mg/kg, ip measured upto 24 hrs by LC-MS/MS analysis; assay type: ADME, organism-based; conditions: in vivo
[10] = Toxicity in male BALB/c mouse xenografted with human HCT-116 cells assessed as histological change in liver at 10 to 40 mg/kg, ip by H and E staining based optical microscopic analysis; assay type: organism-based; conditions: in vivo, dose 10-40 mg/kg
HCT-116 [11] = experiment: Induction of cell cycle arrest in human HCT-116 cells assessed as downregulation of CDK1 protein level by Western blot analysis; assay type: functional, cell-based
RKO [12] = experiment: Induction of cell cycle arrest in human RKO cells assessed as downregulation of Cyclin B1 protein level by Western blot analysis; assay type: functional, cell-based
HCT-116 [13] = experiment: Inhibition of Hsp90/beta-catenin in human HCT-116 cells at 6 to 10 uM incubated for 24 hrs by co-immunoprecipitation analysis; assay type: cell-based; conditions: dose 6-10 µM
[14] = Toxicity in Kunming mouse assessed as behavioural changes at 200 to 400 mg/kg, ip; assay type: organism-based; conditions: in vivo, dose 200-400 mg/kg
HCT-116 [15] = experiment: Inhibition of Wnt/beta-catenin signaling pathway in human HCT-116 cells assessed as induction of beta-catenin degradation pretreated with cycloheximide followed by compound addition by Western blot analysis; assay type: cell-based; conditions: time <= 6.0 hrs, TDE = time-dependent effect
[16] = Half life in male ICR (CD-1) mouse at 5 mg/kg, iv measured upto 24 hrs by LC-MS/MS analysis; assay type: ADME, organism-based; conditions: in vivo
[17] = biological target: Heat shock protein HSP90 (Homo sapiens) (UniProt P07900+P08238); experiment: Induction of thermal stabilization of Hsp90 in human HCT-116 cells at 37 to 82 degree C at 100 uM incubated for 1 hr by thermal shift assay; assay type: cell-based
[18] = Tmax in male ICR (CD-1) mouse at 10 mg/kg, ip measured upto 24 hrs by LC-MS/MS analysis; assay type: ADME, organism-based; conditions: in vivo
[19] = Toxicity in Kunming mouse assessed as drug tolerance at 200 to 400 mg/kg, ip; assay type: organism-based; conditions: in vivo, dose 200-400 mg/kg
RKO [20] = experiment: Inhibition of Hsp90/beta-catenin in human RKO cells at 6 to 10 uM incubated for 24 hrs by co-immunoprecipitation analysis; assay type: cell-based; conditions: dose 6-10 µM
[21] = Toxicity in male BALB/c mouse xenografted with human HCT-116 cells assessed as effect on serum ALP level at 10 to 40 mg/kg, ip by biochemical analysis; assay type: organism-based; conditions: in vivo, dose 10-40 mg/kg
HCT-116 [22] = experiment: Antiproliferative activity against human HCT-116 cells incubated for 24 hrs by MTT assay; assay type: functional, cell-based; conditions: HCT-116, 24 h
[23] = Oral bioavailability in male ICR (CD-1) mouse at 20 mg/kg measured upto 24 hrs by LC-MS/MS analysis; assay type: ADME, organism-based; conditions: in vivo
[24] = Toxicity in male BALB/c mouse xenografted with human HCT-116 cells assessed as effect on serum AST level at 10 to 40 mg/kg, ip by biochemical analysis; assay type: organism-based; conditions: in vivo, dose 10-40 mg/kg
RKO [25] = experiment: Antiproliferative activity against human RKO cells assessed as inhibition of DNA proliferation at 10 uM incubated for 22 hrs by fluorescence based microscopic analysis; assay type: functional, cell-based
[26] = AUC (0 to infinity) in male ICR (CD-1) mouse at 10 mg/kg, ip measured upto 24 hrs by LC-MS/MS analysis; assay type: ADME, organism-based; conditions: in vivo
HCT-116 [27] = experiment: Induction of cell cycle arrest in human HCT-116 cells assessed as downregulation of c-Myc protein level by Western blot analysis; assay type: functional, cell-based
HCT-116 [28] = experiment: Antiproliferative activity against human HCT-116 cells assessed as inhibition rate at 20 uM incubated for 24 hrs by MTT assay relative to control; assay type: functional
RKO [29] = experiment: Induction of cell cycle arrest in human RKO cells assessed as downregulation of c-Myc protein level by Western blot analysis; assay type: functional, cell-based
HCT-116 [30] = experiment: Antiproliferative activity against human HCT-116 cells assessed as inhibition of DNA replication at 10 uM incubated for 22 hrs by fluorescence based microscopic analysis; assay type: functional, cell-based
[31] = Clearance in male ICR (CD-1) mouse at 5 mg/kg, iv measured upto 24 hrs by LC-MS/MS analysis; assay type: ADME, organism-based; conditions: in vivo
[32] = Half life in male ICR (CD-1) mouse at 10 mg/kg, ip measured upto 24 hrs by LC-MS/MS analysis; assay type: ADME, organism-based; conditions: in vivo
HCT-116 [33] = experiment: Induction of cell cycle arrest in human HCT-116 cells assessed as upregulation of P21 protein level by Western blot analysis; assay type: functional, cell-based
[34] = Binding affinity to recombinant N-terminal GST-tagged human HSP90 (1 to 224 residues) extracted from Escherichia coli BL21 (DE3) cells assessed as dissociation constant by surface plasmon resonance assay
HCT-116 [35] = experiment: Inhibition of colony formation in human HCT-116 cells incubated for 24 hrs by crystal violet staining based analysis; assay type: functional, cell-based; conditions: dose 6-10 µM
[36] = Toxicity in male BALB/c mouse xenografted with human HCT-116 cells assessed as histological change in spleen at 10 to 40 mg/kg, ip by H and E staining based optical microscopic analysis; assay type: organism-based; conditions: in vivo, dose 10-40 mg/kg
HCT-116 [37] = experiment: Antitumor activity against human HCT-116 cells xenografted in male BALB/c mouse assessed as tumor growth inhibition at 10 mg/kg, ip measured every two days for upto 20 days relative to control; assay type: functional; conditions: HCT-116, 480 h, time <= 20 day, read-out: TGI
[38] = Half life in male ICR (CD-1) mouse at 20 mg/kg, po measured upto 24 hrs by LC-MS/MS analysis; assay type: ADME, organism-based; conditions: in vivo
RKO [39] = experiment: Antiproliferative activity against human RKO cells assessed as inhibition of DNA replication at 10 uM incubated for 22 hrs by fluorescence based microscopic analysis; assay type: functional, cell-based

For `CC12c3ccc(Cl)cc3CCN1CCc1c2[nH]c2ccc(Cl)cc12` (centres undefined), the Activity [1] was “Non-Toxic”, the Activity (HCT-116 [2]) was “Active” and the Activity [3] was “Non-Toxic”. The Activity (RKO [4]) was “Dose-Dependent Effect”, the inhibition (HCT-116 [5]) was “Dose-Dependent Effect” and the Activity [6] was “Non-Toxic”. The Activity [7] was “Non-Toxic”, the Activity (RKO [8]) was “Dose-Dependent Effect” and the Cmax [9] was 1450 ng/mL. The Activity [10] was “Non-Toxic”, the Activity (HCT-116 [11]) was “Dose-Dependent Effect” and the Activity (RKO [12]) was “Dose-Dependent Effect”. For the same compound, the inhibition (HCT-116 [13]) was “Dose-Dependent Effect”, the Activity [14] was “Non-Toxic” and the inhibition (HCT-116 [15]) was “Tde”. The half-life [16] was 1.42 h, the Activity [17] was “Active” and the Tmax [18] was 0.25 h. For the same compound, the Activity [19] was “Non-Toxic”, the inhibition (RKO [20]) was “Dose-Dependent Effect” and the Activity [21] was “Non-Toxic”. For the same compound, the IC50 (HCT-116 [22]) was 8.31 µM, the bioavailability [23] was 40% and the Activity [24] was “Non-Toxic”. For the same compound, the Activity (RKO [25]) was “Active”, the AUC(0-inf) [26] was 2900 ng·h/mL and the Activity (HCT-116 [27]) was “Dose-Dependent Effect”. For the same compound, the inhibition at 20 µM (HCT-116 [28]) was 89.2%, the Activity (RKO [29]) was “Dose-Dependent Effect” and the Activity (HCT-116 [30]) was “Active”. The clearance [31] was 56.1 mL/min/kg, the half-life [32] was 3.55 h and the Activity (HCT-116 [33]) was “Dose-Dependent Effect”. For the same compound, the Kd [34] was 12.2 µM, the inhibition (HCT-116 [35]) was “Dose-Dependent Effect” and the Activity [36] was “Non-Toxic”. For the same compound, the inhibition in vivo at 10 mg/kg (HCT-116 [37]) was 57.4%, the half-life [38] was 2.6 h and the Activity (RKO [39]) was “Active”.
